The text below walks through data of patent US20240270821A1, “GIP/GLP1/GCG TRI-RECEPTOR AGONISTS AND USES THEREOF” (priority 2023, published 2024).

Starred links: 1 amine or outer side, 2 acyl side, 3 side chain; linkers in the order of their positions; H or OH if unused. Non-standard residues stand in square brackets, D forms with d. Residues, ends and D or L forms follow the SMILES beside them. Groups on a side chain read outwards from the residue. *: point of attachment. Phe(4-NO2) = N[C@@H](Cc1ccc([N+](=O)[O-])cc1)C(=O)O; C18 diacid = O=C(O)CCCCCCCCCCCCCCCCC(=O)*; αMePhe(2-F) = C[C@](N)(Cc1ccccc1F)C(=O)O; γGlu = O=C(O)[C@H](CCC(=O)[*:2])N[*:1]; 4Pal = N[C@@H](Cc1ccncc1)C(=O)O; αMeL = CC(C)C[C@](C)(N)C(=O)O; αMeS = C[C@](N)(CO)C(=O)O; Orn = NCCC[C@H](N)C(=O)O; AEEA = NCCOCCOCC(=O)O; Aib = CC(C)(N)C(=O)O

Common to all, as to assay type: cell-based
In test [1] the target is T1, hGLP-1R (Homo sapiens, UniProt P43220). The test can be described thus: Functional cAMP activation in the presence of 0.1% casein (no HSA). The conditions noted are these: read-out: Relative cAMP EC50, hGLP-1R.
T1 sequence (P43220 24-463): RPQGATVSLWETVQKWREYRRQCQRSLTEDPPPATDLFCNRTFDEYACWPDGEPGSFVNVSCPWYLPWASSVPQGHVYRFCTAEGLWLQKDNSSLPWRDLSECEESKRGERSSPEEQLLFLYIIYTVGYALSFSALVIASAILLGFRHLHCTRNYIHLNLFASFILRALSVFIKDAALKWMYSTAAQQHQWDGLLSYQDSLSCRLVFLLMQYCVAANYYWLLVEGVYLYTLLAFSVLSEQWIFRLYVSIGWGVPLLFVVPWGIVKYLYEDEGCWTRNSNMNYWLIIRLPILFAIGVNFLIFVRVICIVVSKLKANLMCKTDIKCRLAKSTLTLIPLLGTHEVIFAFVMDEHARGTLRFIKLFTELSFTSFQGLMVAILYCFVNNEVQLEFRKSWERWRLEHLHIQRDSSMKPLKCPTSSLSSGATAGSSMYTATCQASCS
Experimental: (§1) After a 30-minute incubation at 37° C., the resulting increase in intracellular cAMP is quantitatively determined using the CisBio CAMP Dynamic 2 HTRF Assay Kit (62AM4PEJ). Briefly, cAMP levels within the cell are detected by adding the cAMP-d2 conjugate in cell lysis buffer followed by the antibody anti-cAMP-Eu^3+-Cryptate, also in cell lysis buffer.
(§2) Intracellular cAMP levels are determined by extrapolation using a standard curve. Dose response curves of compounds are plotted as the percentage of stimulation normalized to minimum (buffer only) and maximum (maximum concentration of each control ligand) values and analyzed using a four parameter non-linear regression fit with a variable slope (Genedata Screener 13). EC50 is the concentration of compound causing half-maximal simulation in a dose response curve. Each relative EC50 value for the Geometric mean calculation is determined from a curve fitting.
Test [2] deals with T1, hGLP-1R. The test can be described thus: Functional cAMP activity in the presence of 1% HSA. The conditions noted are these: read-out: cAMP Rel EC50, hGLP-1R.
A further test deals with hGcgR (Homo sapiens, UniProt P47871). The test is described as follows: Functional cAMP activation in the presence of 0.1% casein (no HSA). The conditions noted are these: read-out: Relative cAMP EC50, hGcgR.
hGcgR, sequence (P47871 26-477): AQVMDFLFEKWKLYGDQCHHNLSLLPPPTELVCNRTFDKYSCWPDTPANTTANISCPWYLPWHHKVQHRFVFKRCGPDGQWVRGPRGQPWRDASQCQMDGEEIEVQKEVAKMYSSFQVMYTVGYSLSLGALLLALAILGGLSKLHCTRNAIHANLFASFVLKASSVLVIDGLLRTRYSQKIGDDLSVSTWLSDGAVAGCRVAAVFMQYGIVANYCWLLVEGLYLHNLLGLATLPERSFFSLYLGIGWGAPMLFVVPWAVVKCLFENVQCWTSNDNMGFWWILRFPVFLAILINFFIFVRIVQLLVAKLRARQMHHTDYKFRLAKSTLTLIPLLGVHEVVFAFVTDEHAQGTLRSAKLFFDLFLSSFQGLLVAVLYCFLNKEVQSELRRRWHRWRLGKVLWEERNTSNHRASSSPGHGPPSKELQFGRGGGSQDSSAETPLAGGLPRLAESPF
In test [3] the target is T2, hGIPR (Homo sapiens, UniProt P48546).
T2 sequence (P48546 22-466): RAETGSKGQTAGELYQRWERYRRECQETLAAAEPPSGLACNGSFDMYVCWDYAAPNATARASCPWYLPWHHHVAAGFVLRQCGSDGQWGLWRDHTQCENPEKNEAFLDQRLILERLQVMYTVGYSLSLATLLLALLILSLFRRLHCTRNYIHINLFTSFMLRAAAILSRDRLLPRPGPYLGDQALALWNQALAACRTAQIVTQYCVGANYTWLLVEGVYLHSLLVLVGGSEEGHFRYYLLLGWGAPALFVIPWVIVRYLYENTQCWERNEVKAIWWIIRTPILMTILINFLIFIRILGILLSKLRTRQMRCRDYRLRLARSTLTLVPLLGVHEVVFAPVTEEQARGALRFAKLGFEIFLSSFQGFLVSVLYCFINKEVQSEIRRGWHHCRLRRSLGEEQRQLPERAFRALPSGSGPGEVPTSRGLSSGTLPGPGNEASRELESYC
The test can be described thus: Functional cAMP activity in the presence of 1% HSA. The conditions noted are these: read-out: cAMP Rel EC50, hGIPR.

In test [4] the target is T2, hGIPR. The test is described as follows: Functional cAMP activation in the presence of 0.1% casein (no HSA). The conditions noted are these: read-out: Relative cAMP EC50, hGIPR.
The target in the next test is human GcgR (Homo sapiens, UniProt P47871). The test is described as follows: Functional cAMP activity in the presence of 1% HSA. The conditions noted are these: read-out: cAMP Rel EC50, hGcgR.
human GcgR, sequence (P47871 26-477): as the sequence (P47871 26-477) above
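Throughout, for Relative cAMP EC50, hGIPR: intracellular cAMP rise after 30 min at 37 °C read by HTRF against a standard curve, scaled between buffer alone (0%) and top control ligand concentration (100%), four-parameter fit.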
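Throughout, for Relative cAMP EC50, hGLP-1R: intracellular cAMP rise after 30 min at 37 °C read by HTRF, normalized between buffer only (0%) and maximal control ligand (100%), four-parameter variable-slope fit.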
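Throughout, for Relative cAMP EC50, hGcgR: intracellular cAMP rise after 30 min at 37 °C, read by HTRF against a cAMP standard curve, scaled from buffer only (0%) to maximal control ligand response (100%).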

Experimental for hGcgR: as §1, §2

Turning to `CC[C@H](C)[C@H](NC(=O)[C@H](Cc1ccccc1)NC(=O)[C@H](C)NC(=O)C(C)(C)NC(=O)[C@H](CCC(N)=O)NC(=O)[C@H](C)NC(=O)[C@H](CCCCNC(=O)COCCOCCNC(=O)CC[C@H](NC(=O)CCCCCCCCCCCCCCCCC(=O)O)C(=O)O)NC(=O)[C@H](CCCN)NC(=O)[C@H](CC(=O)O)NC(=O)[C@H](CC(C)C)NC(=O)[C@](C)(CC(C)C)NC(=O)[C@@H](NC(=O)[C@](C)(CO)NC(=O)[C@H](Cc1ccncc1)NC(=O)[C@H](CC(=O)O)NC(=O)[C@H](CO)NC(=O)[C@@H](NC(=O)[C@](C)(Cc1ccccc1F)NC(=O)[C@@H](NC(=O)CNC(=O)[C@H](CCC(N)=O)NC(=O)C(C)(C)NC(=O)[C@@H](N)Cc1c[nH]cn1)[C@@H](C)O)[C@@H](C)O)[C@@H](C)CC)C(=O)N[C@H](CCC(=O)O)C(=O)N[C@@H](Cc1ccc(O)cc1)C(=O)N[C@@H](CC(C)C)C(=O)N[C@@H](CC(C)C)C(=O)N[C@@H](CCC(=O)O)C(=O)NCC(=O)NCC(=O)N1CCC[C@H]1C(=O)N[C@@H](CO)C(=O)N[C@@H](CO)C(=O)NCC(=O)N[C@@H](CCC(=O)O)C(=O)N1CCC[C@H]1C(=O)N[C@@H](CCC(=O)O)C(=O)N1CCC[C@H]1C(=O)N[C@@H](CCC(=O)O)C(N)=O` [Example 479] (H-H[Aib]QGT[αMePhe(2-F)]TSD[4Pal][αMeS]I[αMeL]LD[Orn]K([AEEA-γGlu-C18 diacid])AQ[Aib]AFI[dE]YLLEGGPSSGEPEPE-NH2), the EC50 (as a rule, the concentration that produces a half-maximal response) at hGLP-1R [1] is 0.314 nM; on hGLP-1R [2], 23.5 nM; at hGcgR, 5.98 nM; on hGIPR [3], 7.11 nM; on hGIPR [4] it was 0.0905 nM; on human GcgR, 432 nM.

`CC[C@H](C)[C@H](NC(=O)[C@H](Cc1ccccc1)NC(=O)[C@H](C)NC(=O)C(C)(C)NC(=O)[C@H](CCC(N)=O)NC(=O)[C@H](C)NC(=O)[C@H](CCCCNC(=O)COCCOCCNC(=O)CC[C@H](NC(=O)CCCCCCCCCCCCCCCCC(=O)O)C(=O)O)NC(=O)[C@H](CCCN)NC(=O)[C@H](CC(=O)O)NC(=O)[C@H](CC(C)C)NC(=O)[C@](C)(CC(C)C)NC(=O)[C@@H](NC(=O)[C@H](CO)NC(=O)[C@H](Cc1ccncc1)NC(=O)[C@H](CC(=O)O)NC(=O)[C@H](CO)NC(=O)[C@@H](NC(=O)[C@](C)(Cc1ccccc1F)NC(=O)[C@@H](NC(=O)CNC(=O)[C@H](CCC(N)=O)NC(=O)C(C)(C)NC(=O)[C@@H](N)Cc1ccc(O)cc1)[C@@H](C)O)[C@@H](C)O)[C@@H](C)CC)C(=O)N[C@@H](CCC(=O)O)C(=O)N[C@@H](Cc1ccc(O)cc1)C(=O)N[C@@H](CC(C)C)C(=O)N[C@@H](CCC(=O)O)C(=O)N[C@@H](CCC(=O)O)C(=O)NCC(=O)NCC(=O)N1CCC[C@H]1C(=O)N[C@@H](CO)C(=O)N[C@@H](CO)C(=O)NCC(=O)N[C@@H](CCC(=O)O)C(=O)N1CCC[C@H]1C(=O)N1CCC[C@H]1C(=O)N1CCC[C@H]1C(=O)N[C@@H](CO)C(N)=O` [Example 486] (H-Y[Aib]QGT[αMePhe(2-F)]TSD[4Pal]SI[αMeL]LD[Orn]K([AEEA-γGlu-C18 diacid])AQ[Aib]AFIEYLEEGGPSSGEPPPS-NH2): the EC50 on hGLP-1R [1] is 0.375 nM; on hGLP-1R [2], 35 nM; on hGcgR, 4.43 nM; at hGIPR [3] it was 2.57 nM; on hGIPR [4] it was 0.0262 nM; on human GcgR, 647 nM.

For the compound `CC[C@H](C)[C@H](NC(=O)[C@H](Cc1ccccc1)NC(=O)[C@H](C)NC(=O)C(C)(C)NC(=O)[C@H](CCC(N)=O)NC(=O)[C@H](C)NC(=O)[C@H](CCCCNC(=O)COCCOCCNC(=O)CC[C@H](NC(=O)CCCCCCCCCCCCCCCCC(=O)O)C(=O)O)NC(=O)[C@H](CCCCN)NC(=O)[C@H](CC(=O)O)NC(=O)[C@H](CC(C)C)NC(=O)[C@](C)(CC(C)C)NC(=O)[C@@H](NC(=O)[C@H](CO)NC(=O)[C@H](Cc1ccncc1)NC(=O)[C@H](CC(=O)O)NC(=O)[C@H](CO)NC(=O)[C@@H](NC(=O)[C@](C)(Cc1ccccc1F)NC(=O)[C@@H](NC(=O)CNC(=O)[C@H](CCC(N)=O)NC(=O)C(C)(C)NC(=O)[C@@H](N)Cc1ccc(O)cc1)[C@@H](C)O)[C@@H](C)O)[C@@H](C)CC)C(=O)N[C@@H](CCC(=O)O)C(=O)N[C@@H](Cc1ccc(O)cc1)C(=O)N[C@@H](CC(C)C)C(=O)N[C@@H](CCC(=O)O)C(=O)N[C@@H](CCC(=O)O)C(=O)NCC(=O)NCC(=O)N1CCC[C@H]1C(=O)N[C@@H](CO)C(=O)N[C@@H](CO)C(=O)NCC(=O)N[C@@H](CCC(=O)O)C(=O)N1CCC[C@H]1C(=O)N1CCC[C@H]1C(=O)N1CCC[C@H]1C(=O)N[C@@H](CCC(=O)O)C(N)=O` [Example 487] (H-Y[Aib]QGT[αMePhe(2-F)]TSD[4Pal]SI[αMeL]LDKK([AEEA-γGlu-C18 diacid])AQ[Aib]AFIEYLEEGGPSSGEPPPE-NH2), the EC50 came to 0.639 nM on hGLP-1R [1]; 27.7 nM at hGLP-1R [2]; 5.36 nM on hGcgR; 2.26 nM on hGIPR [3]; 0.0286 nM at hGIPR [4]; 477 nM on human GcgR.

For the compound `CC[C@H](C)[C@H](NC(=O)[C@H](Cc1ccccc1)NC(=O)[C@H](C)NC(=O)C(C)(C)NC(=O)[C@H](CCC(N)=O)NC(=O)[C@H](C)NC(=O)[C@H](CCCCNC(=O)COCCOCCNC(=O)CC[C@H](NC(=O)CCCCCCCCCCCCCCCCC(=O)O)C(=O)O)NC(=O)[C@H](CCCCN)NC(=O)[C@H](CC(=O)O)NC(=O)[C@H](CC(C)C)NC(=O)[C@](C)(CC(C)C)NC(=O)[C@@H](NC(=O)[C@H](CO)NC(=O)[C@H](Cc1ccc([N+](=O)[O-])cc1)NC(=O)[C@H](CC(=O)O)NC(=O)[C@H](CO)NC(=O)[C@@H](NC(=O)[C@](C)(Cc1ccccc1F)NC(=O)[C@@H](NC(=O)CNC(=O)[C@H](CCC(N)=O)NC(=O)C(C)(C)NC(=O)[C@@H](N)Cc1ccc(O)cc1)[C@@H](C)O)[C@@H](C)O)[C@@H](C)CC)C(=O)N[C@@H](CCC(=O)O)C(=O)N[C@@H](Cc1ccc(O)cc1)C(=O)N[C@@H](CC(C)C)C(=O)N[C@@H](CCC(=O)O)C(=O)N[C@@H](CCC(=O)O)C(=O)NCC(=O)NCC(=O)N1CCC[C@H]1C(=O)N[C@@H](CO)C(=O)N[C@@H](CO)C(=O)NCC(=O)N[C@@H](C)C(=O)N1CCC[C@H]1C(=O)N1CCC[C@H]1C(=O)N1CCC[C@H]1C(=O)N[C@@H](CCC(=O)O)C(N)=O` [Example 495] (H-Y[Aib]QGT[αMePhe(2-F)]TSD[Phe(4-NO2)]SI[αMeL]LDKK([AEEA-γGlu-C18 diacid])AQ[Aib]AFIEYLEEGGPSSGAPPPE-NH2), the EC50 is 0.274 nM at hGLP-1R [1]; 53.8 nM on hGLP-1R [2]; 1.75 nM on hGcgR; 5.74 nM at hGIPR [3]; 0.0361 nM at hGIPR [4]; 205 nM at human GcgR.

On to `CC[C@H](C)[C@H](NC(=O)[C@H](Cc1ccccc1)NC(=O)[C@H](CCCN)NC(=O)C(C)(C)NC(=O)[C@H](CCC(N)=O)NC(=O)[C@H](C)NC(=O)[C@H](CCCCNC(=O)[C@H](CCC(=O)O)NC(=O)CC[C@H](NC(=O)CCCCCCCCCCCCCCCCC(=O)O)C(=O)O)NC(=O)[C@H](CCCN)NC(=O)[C@H](CC(=O)O)NC(=O)[C@H](CC(C)C)NC(=O)[C@](C)(CC(C)C)NC(=O)[C@@H](NC(=O)[C@](C)(CO)NC(=O)[C@H](Cc1ccncc1)NC(=O)[C@H](CC(=O)O)NC(=O)[C@H](CO)NC(=O)[C@@H](NC(=O)[C@](C)(Cc1ccccc1F)NC(=O)[C@@H](NC(=O)CNC(=O)[C@H](CCC(N)=O)NC(=O)C(C)(C)NC(=O)[C@@H](N)Cc1ccc(O)cc1)[C@@H](C)O)[C@@H](C)O)[C@@H](C)CC)C(=O)N[C@H](CCC(=O)O)C(=O)N[C@@](C)(Cc1ccc(O)cc1)C(=O)N[C@@H](CC(C)C)C(=O)N[C@@H](CCC(N)=O)C(=O)N[C@@H](CCC(=O)O)C(=O)NCC(=O)NCC(=O)N1CCC[C@H]1C(=O)N[C@@H](CO)C(=O)N[C@@H](CO)C(=O)NCC(=O)N[C@@H](CCC(=O)O)C(=O)N1CCC[C@H]1C(=O)N1CCC[C@H]1C(=O)N1CCC[C@H]1C(=O)N[C@@H](CCC(=O)O)C(=O)NCC(=O)N[C@H](C(=O)N[C@@H](CCC(=O)O)C(=O)N[C@@H](CCC(=O)O)C(N)=O)[C@@H](C)O` [Example 593], for which the EC50 was 0.495 nM at hGLP-1R [1]; 35.3 nM at hGLP-1R [2]; 6.57 nM at hGcgR; 2.71 nM at hGIPR [3]; 0.0484 nM on hGIPR [4]; 591 nM on human GcgR.
